Counter-ions that a name gives are not always drawn.
melting point | Compound
248 to 252 °C | CSc1cccc2c1nc(N)n[n+]2[O-] [Compound 3ad, 5-Methylsulfanyl-1,2,4-benzotriazin-3-amine 1-oxide]
265 to 270 °C | COc1ccc2c(c1)nc(N)n[n+]2[O-] [Compound 3q, 6-Methoxy-1,2,4-benzotriazin-3-amine 1-oxide]
252 to 256 °C | Nc1nc2c(F)cccc2[n+]([O-])n1 [Compound 3ab, 5-Fluoro-1,2,4-benzotriazin-3-amine 1-oxide]
309 °C (dec.) | Nc1nc2ccc(Cl)cc2[n+]([O-])n1 [Compound 3l, 7-Chloro-1,2,4-benzotriazin-3-amine 1-oxide]
269 to 272 °C | Nc1nc2ccc([N+](=O)[O-])cc2[n+]([O-])n1 [Compound 3p, 7-Nitro-1,2,4-benzotriazin-3-amine 1-oxide]
233 to 236 °C | CCCCSc1cccc2nc(N)n[n+]([O-])c12 [Compound 3g, 8-(Butylsulfanyl)-1,2,4-benzotriazin-3-amine 1-oxide]
215 to 217 °C | CCCCSc1ccc2nc(N)n[n+]([O-])c2c1 [Compound 3o, 7-(Butylsulfanyl)-1,2,4-benzotriazin-3-amine 1-oxide]
248 to 250 °C | CSc1ccc2c(c1)nc(N)n[n+]2[O-] [Compound 3w, 6-(Methylsulfanyl)-1,2,4-benzotriazin-3-amine 1-oxide]
271 to 275 °C | CSc1cccc2nc(N)n[n+]([O-])c12 (hydrate or solvate) [Compound 3f, 8-(Methylsulfanyl)-1,2,4-benzotriazin-3-amine 1-oxide]
180 to 182 °C | CCCCSc1ccc2c(c1)nc(N)n[n+]2[O-] [Compound 3x, 6-(Butylsulfanyl)-1,2,4-benzotriazin-3-amine 1-oxide]
270 °C (dec.) | Cc1ccc2nc(N)n[n+]([O-])c2c1 [Compound 3j, 7-Methyl-1,2,4-benzotriazin-3-amine 1-oxide]
280 to 290 °C (dec.) | Nc1nc2cccc(Cl)c2[n+]([O-])n1 [Compound 3d, 8-Chloro-1,2,4-benzotriazin-3-amine 1-oxide]
270 to 278 °C (dec.) | Nc1nc2cccc(F)c2[n+]([O-])n1 [Compound 3c, 8-Fluoro-1,2,4-benzotriazin-3-amine 1-oxide]
256 to 258 °C | Nc1nc2cc(-c3ccccc3)ccc2[n+]([O-])n1 [Compound 3s, 6-Phenyl-1,2,4-benzotriazin-3-amine 1-oxide]

The remaining lines, values behind:

Compound | melting point
Cc1cccc2nc(NCCN(C)C)n[n+]([O-])c12 [Compound 101, N^1,N^1-Dimethyl-N^2-(8-methyl-1-oxido-1,2,4-benzotriazin-3-yl)-1,2-ethanediamine] | 121 to 123 °C
Cc1ccc2nc(NCCN3CCCCC3)n[n+]([O-])c2c1 [Compound 89, 7-Methyl-N-[2-(1-piperidinyl)ethyl]-1,2,4-benzotriazin-3-amine 1-oxide] | 166 to 168 °C
Cc1cc(C)c2c(c1)nc(NCCN1CCCCC1)n[n+]2[O-] [Compound 110, 6,8-Dimethyl-N-[2-(1-piperidinyl)ethyl]-1,2,4-benzotriazin-3-amine 1-oxide] | 177 to 178 °C
COc1ccc2c(c1)nc(NCCN1CCCCC1)n[n+]2[O-] [Compound 85, 6-Methoxy-N-[2-(1-piperidinyl)ethyl]-1,2,4-benzotriazin-3-amine 1-oxide] | 133 to 135 °C
COc1ccc(-c2nc3ccccc3[n+]([O-])n2)cc1 [Compound 58, 3-(4-Methoxyphenyl)-1,2,4-benzotriazine 1-oxide] | 168 to 170 °C
Cc1ccc2c(c1)nc(CCO)n[n+]2[O-] [Compound 81, 2-(6-Methyl-1-oxido-1,2,4-benzotriazin-3-yl)ethanol] | 121 to 123 °C
COc1ccc2c(c1)nc(NCCN1CCOCC1)n[n+]2[O-] [Compound 86, 6-Methoxy-N-[2-(4-morpholinyl)ethyl]-1,2,4-benzotriazin-3-amine 1-oxide] | 186 to 188 °C
COCCNc1nc2ccccc2[n+]([O-])c1C#N [Compound 123, 3-[(2-Methoxyethyl)amino]-2-quinoxalinecarbonitrile 1-oxide] | 124 to 126 °C
CN(C)CCc1nc2ccccc2[n+]([O-])n1 | 47 to 49 °C
CCCN(CCC)CCNc1nc2cc(C(C)C)ccc2[n+]([O-])n1 [Compound 151, N^1-(6-Isopropyl-1-oxido-1,2,4-benzotriazin-3-yl)-N^2,N^2-dipropyl-1,2-ethanediamine] | 79 to 81 °C
[N-]=[N+]=NCCCNc1nc2ccccc2[n+]([O-])n1 [Compound 28, N-(3-Azidopropyl)-1,2,4-benzotriazin-3-amine 1-oxide] | 128 to 130 °C
COc1cc2nc(NCCN(C)C)n[n+]([O-])c2cc1C [Compound 114, N^1-(6-Methoxy-7-methyl-1-oxido-1,2,4-benzotriazin-3-yl)-N^2,N^2-dimethyl-1,2-ethanediamine] | 167 to 169 °C
COc1cc2c(cc1C)nc(NCCN1CCCCC1)n[n+]2[O-] [Compound 119, 7-Methoxy-6-methyl-N-[2-(1-piperidinyl)ethyl]-1,2,4-benzotriazin-3-amine 1-oxide] | 195 to 197 °C
CCc1nc2ccc(OCCOC)cc2[n+]([O-])n1 [Compound 97, 3-Ethyl-7-(2-methoxyethoxy)-1,2,4-benzotriazine 1-oxid] | 95 to 97 °C
[O-][n+]1nc(NCCN2CCCCC2)nc2cc(Cl)ccc21 [Compound 135, 6-Chloro-N-[2-(1-piperidinyl)ethyl]-1,2,4-benzotriazin-3-amine 1-Oxide] | 178 to 181 °C
Cc1ccc2c(c1)nc(NCCN1CCOCC1)n[n+]2[O-] [Compound 138, 6-Methyl-N-[2-(4-morpholinyl)ethyl]-1,2,4-benzotriazin-3-amine 1-Oxide] | 182 to 184 °C
Cc1cccc2nc(NCCN3CCOCC3)n[n+]([O-])c12 [Compound 163, 8-Methyl-N-[2-(4-morpholinyl)ethyl]-1,2,4-benzotriazin-3-amine 1-Oxide] | 168 to 170 °C
[O-][n+]1nc(NCCOCCO)nc2ccccc21 [Compound 33, 3-{[2-(2-Hydroxyethoxy)ethyl]amino}-1,2,4-benzotriazine 1-oxide] | 131 to 131.5 °C
CC(C)(C)OC(=O)NCCCNc1nc2ccccc2[n+]([O-])n1 [Compound 29, tert-Butyl 3-[(1-oxido-1,2,4-benzotriazin-3-yl)amino]propylcarbamate] | 145 to 147 °C

Compound | melting point
COCCc1nc2ccccc2[n+]([O-])n1 [Compound 63, 3-(2-Methoxyethyl)-1,2,4-benzotriazine 1-oxide] | 56 to 58 °C
COc1cc2c(cc1C)nc(Cl)n[n+]2[O-] [Compound 117, 3-Chloro-7-methoxy-6-methyl-1,2,4-benzotriazine 1-oxide] | 200 to 202 °C
Cc1cc2nc(Cl)n[n+]([O-])c2cc1C [Compound 104, 3-Chloro-6,7-dimethyl-1-oxido-1,2,4-benzotriazine] | 148 to 149 °C
CC(C)(C)c1ccc2c(c1)nc(N)n[n+]2[O-] [Compound 153, 6-tert-Butyl-1,2,4-benzotriazin-3-amine 1-Oxide] | 209 to 212 °C
CN(C)CCN(C)c1nc2ccccc2[n+]([O-])n1 (as salt: hydrochloride) [Compound 38, N^1,N^1,N^2-Trimethyl-N^2-(1-oxido-1,2,4-benzotriazin-3-yl)-1,2-ethanediamine] | 220 to 223 °C
COCCOc1ccc2nc(N)n[n+]([O-])c2c1 [Compound 14, 7-(2-Methoxyethoxy)-1,2,4-benzotriazin-3-amine 1-oxide] | 201 to 203 °C
CC(C)c1ccc2c(c1)nc(NCCN(C)C)n[n+]2[O-] [Compound 147, N^1-(6-Isopropyl-1-oxido-1,2,4-benzotriazin-3-yl)-N^2,N^2-dimethyl-1,2-ethanediamine] | 87 to 89 °C
CN(C)CCNC(=O)Cc1ccc(Nc2nc3ccccc3[n+]([O-])n2)cc1 [Compound 54, N-[2-(Dimethylamino)ethyl]-2-{4-[(1-oxido-1,2,4-benzotriazin-3-yl)amino]phenyl}acetamide] | 225 to 226 °C
CC(C)(C)c1ccc2c(c1)nc(Cl)n[n+]2[O-] [Compound 154, 6-tert-Butyl-3-chloro-1,2,4-benzotriazine 1-oxide] | 91 to 94 °C
Cc1cccc2nc(Cl)n[n+]([O-])c12 [Compound 100, 3-Chloro-8-methyl-1,2,4-benzotriazine 1-oxide] | 170 to 173 °C
COCCNc1nc2ccccc2[n+]([O-])n1 [Compound 23, N-(2-Methoxyethyl)-1,2,4-benzotriazin-3-amine 1-oxide] | 155 to 156 °C
[O-][n+]1nc(NCCN2CCCC2)nc2ccccc21 [Compound 40, N-[2-(1-Pyrrolidinyl)ethyl]-1,2,4-benzotriazin-3-amin 1-oxid] | 141 to 143 °C
COc1cc2nc(N)n[n+]([O-])c2cc1C [Compound 112, 6-Methoxy-7-methyl-1,2,4-benzotriazin-3-amine 1-oxide] | 289 to 292 °C
CC(C)c1ccc2c(c1)nc(NCCN1CCCCC1)n[n+]2[O-] [Compound 150, 6-Isopropyl-N-[2-(1-piperidinyl)ethyl]-1,2,4-benzotriazin-3-amine 1-Oxide] | 124 to 127 °C
CN(C)CCNc1nc2cc(C(C)(C)C)ccc2[n+]([O-])n1 [Compound 155, N^1-(6-tert-Butyl-1-oxido-1,2,4-benzotriazin-3-yl)-N^2,N^2-dimethyl-1,2-ethanediamine] | 140 to 144 °C
N#CCCCNc1nc2ccccc2[n+]([O-])n1 [Compound 27, 4-[(1-Oxido-1,2,4-benzotriazin-3-yl)amino]butanenitrile] | 184 to 187 °C
[O-][n+]1nc(Cl)nc2ccc(OCCN3CCOCC3)cc21 [Compound 98, 3-Chloro-7-[2-(4-morpholinyl)ethoxy]-1,2,4-benzotriazine 1-oxide] | 144 to 146 °C
[O-][n+]1nc(CCCO)nc2ccccc21 [Compound 66, 3-(3-Hydroxypropyl)-1,2,4-benzotriazine 1-oxid] | 99 to 100 °C

— patent US20040192686A1, “Benzoazine mono-N-oxides and benzoazine 1,4 dioxides and compositions therefrom for the therapeutic use in cancer treatments” (Auckland Uniservices Limited, priority 2003, published 2004)
